Where two headings read alike, the source gives them in different places.
What was measured:
KRAS G12D = KRAS G12D (Homo sapiens, UniProt P01116+P62937, G12D); assay: Disruption of BRAF RBD interaction with Ras (FRET / MOA assay, with Cyclophilin A); assay type: biochemical
Outline: (§1)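 First, compounds at a ten-point threefold dilution series (highest final concentration 30 μM) were incubated with nucleotide-loaded K-Ras, Cyclophilin A and BRAF RBD for 3 h at 25 °C. Next, detection antibodies were added for 1.5 h. Finally, IC50 was calculated from TR-FRET ratio decreases against DMSO controls.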

KRAS G13C = KRAS G13C (Homo sapiens, UniProt P01116+P62937, G13C); assay: as above; assay type: biochemical
Outline: as §1

KRAS G12S = KRAS G12S (Homo sapiens, UniProt P01116+P62937, G12S); assay: as above; assay type: biochemical
Outline: as §1

KRAS G12C = KRAS G12C (Homo sapiens, UniProt P01116+P62937, G12C); assay: as above; assay type: biochemical
Outline: as §1

KRAS G12V = KRAS G12V (Homo sapiens, UniProt P01116+P62937, G12V); assay: as above; assay type: biochemical
Outline: as §1

KRAS WT = KRAS WT (Homo sapiens, UniProt P01116+P62937); assay: as above; assay type: biochemical
Outline: as §1

KRAS G13D = KRAS G13D (Homo sapiens, UniProt P01116+P62937, G13D); assay: as above; assay type: biochemical
Outline: as §1

NRAS G12C = NRAS G12C (Homo sapiens, UniProt P01111+P62937, G12C); assay: as above; assay type: biochemical
[1] = system: K-Ras G12C (NCI-H358 cells); assay: Potency assay: pERK (AlphaLISA SureFire or In-Cell Western); assay type: cell-based; conditions: Homo sapiens, NCI-H358; H358 KRAS G12C; read-out: pERK EC50
Outline: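 NCI-H358 cells plated overnight, then treated 4 h at 37 °C with 10-point 3-fold DMSO dilutions (10 mM top stock), in duplicate. pERK1/2 read by AlphaLISA SureFire Ultra lysate assay or by In-Cell Western with DRAQ5 DNA stain. IC50 from 4-parameter sigmoidal fit of signal vs log concentration.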

[2] = read-out: KRAS G12D FRET data, IC50
[3] = KRAS G13C, read-out: KRAS G13C FRET data IC50
[4] = read-out: KRAS G12S FRET data, IC50
[5] = KRAS G12C, read-out: KRAS G12C FRET data IC50
[6] = KRAS G12V, read-out: KRAS G12V FRET data IC50
[7] = KRAS WT, read-out: KRAS WT FRET data IC50
[8] = KRAS G13D, read-out: KRAS G13D FRET data IC50
[9] = NRAS G12C, read-out: NRAS G12C FRET data IC50

Sequence of KRAS G13C (P01116 1-169 isoform P01116-2 G13C): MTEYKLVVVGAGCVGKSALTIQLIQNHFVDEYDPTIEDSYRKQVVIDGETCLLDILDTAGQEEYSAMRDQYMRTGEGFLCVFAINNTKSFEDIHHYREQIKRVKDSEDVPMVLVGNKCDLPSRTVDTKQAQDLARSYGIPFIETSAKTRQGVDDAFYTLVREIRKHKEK
Sequence of KRAS G13C (P62937 whole entry): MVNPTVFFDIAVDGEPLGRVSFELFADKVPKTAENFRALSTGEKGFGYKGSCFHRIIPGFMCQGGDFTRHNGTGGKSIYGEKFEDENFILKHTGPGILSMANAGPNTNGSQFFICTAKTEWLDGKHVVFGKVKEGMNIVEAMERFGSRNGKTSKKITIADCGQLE
Sequence of KRAS WT (P01116 1-169 isoform P01116-2 limits assumed): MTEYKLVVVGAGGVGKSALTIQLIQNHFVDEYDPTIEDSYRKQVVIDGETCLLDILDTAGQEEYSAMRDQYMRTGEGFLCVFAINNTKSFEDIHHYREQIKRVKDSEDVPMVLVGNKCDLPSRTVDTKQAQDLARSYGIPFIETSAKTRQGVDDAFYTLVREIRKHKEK
Sequence of KRAS WT (P62937 whole entry): as the sequence (P62937 whole entry) above
Sequence of NRAS G12C (P01111 whole entry G12C): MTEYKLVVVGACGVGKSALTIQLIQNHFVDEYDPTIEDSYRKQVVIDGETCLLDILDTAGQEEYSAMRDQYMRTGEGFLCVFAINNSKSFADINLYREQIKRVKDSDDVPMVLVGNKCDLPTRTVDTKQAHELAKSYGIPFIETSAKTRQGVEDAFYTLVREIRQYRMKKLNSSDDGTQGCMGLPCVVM
Sequence of NRAS G12C (P62937 whole entry): as the sequence (P62937 whole entry) above
Sequence of KRAS G12V (P01116 1-169 isoform P01116-2 G12V limits assumed): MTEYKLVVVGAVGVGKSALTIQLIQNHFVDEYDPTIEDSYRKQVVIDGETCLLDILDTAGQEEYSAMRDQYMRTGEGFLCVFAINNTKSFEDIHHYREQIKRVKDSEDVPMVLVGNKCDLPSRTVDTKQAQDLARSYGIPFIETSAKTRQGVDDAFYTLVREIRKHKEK
Sequence of KRAS G12V (P62937 whole entry): as the sequence (P62937 whole entry) above
Sequence of KRAS G12S (P01116 1-169 isoform P01116-2 G12S limits assumed): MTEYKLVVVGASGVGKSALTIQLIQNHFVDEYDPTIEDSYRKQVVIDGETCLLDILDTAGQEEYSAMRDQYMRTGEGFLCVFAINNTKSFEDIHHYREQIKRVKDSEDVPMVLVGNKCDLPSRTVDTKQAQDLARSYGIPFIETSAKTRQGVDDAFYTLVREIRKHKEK
Sequence of KRAS G12S (P62937 whole entry): as the sequence (P62937 whole entry) above
Sequence of KRAS G12D (P01116 1-169 isoform P01116-2 G12D limits assumed): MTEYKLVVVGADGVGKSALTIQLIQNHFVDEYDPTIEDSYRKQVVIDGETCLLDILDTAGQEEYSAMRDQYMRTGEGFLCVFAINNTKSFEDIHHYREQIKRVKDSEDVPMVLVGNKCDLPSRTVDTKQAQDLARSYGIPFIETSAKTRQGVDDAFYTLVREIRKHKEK
Sequence of KRAS G12D (P62937 whole entry): as the sequence (P62937 whole entry) above
Sequence of KRAS G12C (P01116 1-169 isoform P01116-2 G12C): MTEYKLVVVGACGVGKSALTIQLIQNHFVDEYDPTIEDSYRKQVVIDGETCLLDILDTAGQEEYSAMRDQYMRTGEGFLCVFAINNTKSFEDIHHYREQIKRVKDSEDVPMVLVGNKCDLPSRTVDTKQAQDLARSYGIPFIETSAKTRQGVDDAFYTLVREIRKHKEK
Sequence of KRAS G12C (P62937 whole entry): as the sequence (P62937 whole entry) above
Sequence of KRAS G13D (P01116 1-169 isoform P01116-2 G13D limits assumed): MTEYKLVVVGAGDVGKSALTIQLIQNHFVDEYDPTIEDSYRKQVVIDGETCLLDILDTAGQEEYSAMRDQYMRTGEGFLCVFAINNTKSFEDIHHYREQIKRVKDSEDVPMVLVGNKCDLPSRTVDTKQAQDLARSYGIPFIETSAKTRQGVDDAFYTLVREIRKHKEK
Sequence of KRAS G13D (P62937 whole entry): as the sequence (P62937 whole entry) above

IC50 (KRAS G12D; [2])	IC50 (KRAS G13C; [3])	IC50 (KRAS G12S; [4])	IC50 (KRAS G12C; [5])	IC50 (KRAS G12V; [6])	IC50 (KRAS WT; [7])	IC50 (KRAS G13D; [8])	IC50 (NRAS G12C; [9])	EC50 [1]	IC50 (KRAS G12D; KRAS G12D FRET data, IC50)	IC50 (KRAS G13C; KRAS G13C FRET data IC50, KRAS G13C)	IC50 (KRAS G12S; KRAS G12S FRET data, IC50)	IC50 (KRAS G12C; KRAS G12C FRET data IC50, KRAS G12C)	IC50 (KRAS G12V; KRAS G12V FRET data IC50, KRAS G12V)	IC50 (KRAS WT; KRAS WT FRET data IC50, KRAS WT)	IC50 (KRAS G13D; KRAS G13D FRET data IC50, KRAS G13D)	IC50 (NRAS G12C; NRAS G12C FRET data IC50, NRAS G12C)	SMILES
								< 5000 nM	100 to 1000 nM	10 to 100 nM	100 to 1000 nM	10 to 100 nM	100 to 1000 nM	10 to 100 nM	100 to 1000 nM	10 to 100 nM	C=CC(=O)N1CCO[C@@]2(CCN(C(=O)N(C)[C@H](C(=O)N[C@H]3Cc4nc(cs4)-c4ccc5c(c4)c(c(-c4cccnc4[C@H](C)OC)n5CC(F)(F)F)CC(C)(C)COC(=O)C4CCCN(N4)C3=O)C(C)C)C2)C1 (stereo partly drawn) [Example A594]
100 to 1000 nM	10 to 100 nM	100 to 1000 nM	10 to 100 nM	100 to 1000 nM	10 to 100 nM	100 to 1000 nM	10 to 100 nM	< 5000 nM									C=CC(=O)N1CCC2(C1)CN(C(=O)N(C)[C@H](C(=O)N[C@H]1Cc3nc(cs3)-c3ccc4c(c3)c(c(-c3cccnc3[C@H](C)OC)n4CC(F)(F)F)CC(C)(C)COC(=O)C3CCCN(N3)C1=O)C(C)C)C2 (stereo partly drawn) [Example A603]
100 to 1000 nM	10 to 100 nM	100 to 1000 nM	100 to 1000 nM	100 to 1000 nM	10 to 100 nM	100 to 1000 nM	100 to 1000 nM	< 5000 nM									C=CC(=O)N1CCOC2(CCN(C(=O)N(C)[C@H](C(=O)N[C@H]3Cc4cc(CF)cc(c4)-c4ccc5c(c4)c(c(-c4cccnc4[C@H](C)OC)n5CC(F)(F)F)CC(C)(C)COC(=O)C4CCCN(N4)C3=O)C(C)C)CC2)C1 (stereo partly drawn) [Example A605]
1000 to 10000 nM	10 to 100 nM	100 to 1000 nM	100 to 1000 nM	100 to 1000 nM	100 to 1000 nM	100 to 1000 nM	100 to 1000 nM	< 5000 nM									C=CC(=O)N1CCOC2(CCN(C(=O)N(C)[C@H](C(=O)N[C@H]3Cc4nc(n(C)n4)-c4ccc5c(c4)c(c(-c4cccnc4[C@H](C)OC)n5CC(F)(F)F)CC(C)(C)COC(=O)C4CCCN(N4)C3=O)C(C)C)CC2)C1 (stereo partly drawn) [Example A606]
100 to 1000 nM	10 to 100 nM	100 to 1000 nM	100 to 1000 nM	100 to 1000 nM	100 to 1000 nM	100 to 1000 nM	100 to 1000 nM	< 5000 nM									C=CC(=O)N1CCOC2(CCN(C(=O)N(C)[C@H](C(=O)N[C@H]3Cc4cccc(c4)-c4ccc5c(c4)c(c(-c4cccnc4[C@H](C)OC)n5CC(F)(F)F)CC(C)(C)COC(=O)C4CCCN(N4)C3=O)C(C)C)CC2)C1 (stereo partly drawn) [Example A608]

Further lines, the molecule ahead of its results:

SMILES	IC50 (KRAS G12D; [2])	IC50 (KRAS G13C; [3])	IC50 (KRAS G12S; [4])	IC50 (KRAS G12C; [5])	IC50 (KRAS G12V; [6])	IC50 (KRAS WT; [7])	IC50 (KRAS G13D; [8])	IC50 (NRAS G12C; [9])	EC50 [1]	IC50 (KRAS G12D; KRAS G12D FRET data, IC50)	IC50 (KRAS G13C; KRAS G13C FRET data IC50, KRAS G13C)	IC50 (KRAS G12S; KRAS G12S FRET data, IC50)	IC50 (KRAS G12C; KRAS G12C FRET data IC50, KRAS G12C)	IC50 (KRAS G12V; KRAS G12V FRET data IC50, KRAS G12V)	IC50 (KRAS WT; KRAS WT FRET data IC50, KRAS WT)	IC50 (KRAS G13D; KRAS G13D FRET data IC50, KRAS G13D)	IC50 (NRAS G12C; NRAS G12C FRET data IC50, NRAS G12C)
CCn1c(-c2cccnc2[C@H](C)OC)c2c3cc(ccc31)-c1cccc(c1)C[C@H](NC(=O)[C@H](C(C)C)N1CC[C@]3(CCN(C(=O)C#C[C@@H]4COCCN4C4COC4)C3)C1=O)C(=O)N1CCC[C@H](N1)C(=O)OCC(C)(C)C2 [Example A565]	> 10000 nM	1000 to 10000 nM	1000 to 10000 nM	100 to 1000 nM	1000 to 10000 nM	> 10000 nM	> 10000 nM	100 to 1000 nM	< 5000 nM								
CCn1c(-c2cccnc2[C@H](C)OC)c2c3cc(ccc31)-c1cccc(c1)C[C@H](NC(=O)[C@@H](CN1CC[C@]3(CCN(C(=O)C#C[C@H]4COCCN4C)C3)C1=O)C(C)C)C(=O)N1CCCC(N1)C(=O)OCC(C)(C)C2 (stereo partly drawn) [Example A592]	> 10000 nM	1000 to 10000 nM	1000 to 10000 nM	10 to 100 nM	1000 to 10000 nM	> 10000 nM	> 10000 nM	10 to 100 nM	< 5000 nM								
C=CC(=O)N1CCO[C@H]2CN(C(=O)N(C)[C@H](C(=O)N[C@H]3Cc4cccc(n4)-c4ccc5c(c4)c(c(-c4cccnc4[C@H](C)OC)n5CC(F)(F)F)CC(C)(C)COC(=O)C4CCCN(N4)C3=O)C(C)C)C[C@H]21 (stereo partly drawn) [Example A595]	1000 to 10000 nM	10 to 100 nM	1000 to 10000 nM	10 to 100 nM	1000 to 10000 nM	100 to 1000 nM	1000 to 10000 nM	10 to 100 nM	< 5000 nM								
C=CC(=O)N1CCO[C@H]2CCN(C(=O)N(C)[C@H](C(=O)N[C@H]3Cc4nc(cs4)-c4ccc5c(c4)c(c(-c4cccnc4[C@H](C)OC)n5CC)CC(C)(C)COC(=O)C4CCCN(N4)C3=O)C(C)C)C[C@@H]21 (stereo partly drawn) [Example A609]	100 to 1000 nM	10 to 100 nM	10 to 100 nM	< 10 nM	10 to 100 nM	10 to 100 nM	100 to 1000 nM	< 10 nM	< 5000 nM								
